Measured values from PubChem BioAssay (NCI).
Where “and” joins values, the source holds several entries; their conditions need not be identical. Equal entries are not always repeated.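 Interpolation was linear, between the two tested concentrations surrounding the appropriate level; five concentrations were tested over 48 hours in 96-well plates. Here, GI50 denotes the concentration required for 50% inhibition of growth. The concentration for full growth arrest is given as TGI.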

How the values were obtained:
Experiment in all cases: inhibition of tumour cell growth, NCI panel, 48 h
[1] = test system: SF-539 CNS
[2] = test system: A498 renal
[3] = test system: EKVX NSCLC
[4] = test system: SK-MEL-5 melanoma
[5] = test system: TK-10 renal
[6] = test system: SK-MEL-28 melanoma
[7] = test system: T-47D breast
[8] = test system: HS 578T breast
[9] = test system: SNB-75 CNS
[10] = test system: U251 CNS

COC(=O)c1cc2c([nH]c3ccccc32)c(-c2nc3cc(N(S(=O)(=O)c4ccc(C)cc4)S(=O)(=O)c4ccc(C)cc4)c(OC)cc3cc2CO)n1
GI50 [1]: 56.1 µM
TGI [1]: > 100 µM
GI50 [2]: > 100 µM
TGI [2]: > 100 µM
GI50 [3]: > 100 µM
TGI [3]: > 100 µM
GI50 [4]: > 100 µM
TGI [4]: > 100 µM
GI50 [5]: > 100 µM
TGI [5]: > 100 µM
GI50 [6]: > 100 µM
TGI [6]: > 100 µM
GI50 [7]: > 100 µM
TGI [7]: > 100 µM
GI50 [8]: 30.6 µM
TGI [8]: > 100 µM
GI50 [9]: 33.5 µM
TGI [9]: 98.7 µM
GI50 [10]: 59.5 µM
TGI [10]: > 100 µM

Cn1c(N)c(N=Nc2ccc(S(N)(=O)=O)cc2)c(=O)n(C)c1=O
TGI [1]: > 100 µM
TGI [2]: > 100 µM
TGI [3]: > 100 µM
TGI [4]: > 100 µM
TGI [5]: > 100 µM
TGI [6]: > 100 µM
TGI [7]: > 100 µM
TGI [8]: 99.1 µM
TGI [9]: 56.2 µM
TGI [10]: > 100 µM

O=C(/C=C/CN1CCCCC1)Nc1cc2c(Nc3ccc(F)c(Cl)c3F)ncnc2cc1OCCOC(F)F
GI50 [1]: 1.12 µM
TGI [1]: 3.56 µM
GI50 [2]: 0.299 µM
TGI [2]: 2.02 µM
GI50 [3]: 0.0646 µM
TGI [3]: 5.22 µM
GI50 [4]: 1.54 µM
TGI [4]: 3.07 µM
GI50 [5]: < 0.01 µM
TGI [5]: 1.36 µM
GI50 [6]: 2.27 µM
TGI [6]: 9.19 µM
GI50 [7]: 0.0535 µM
TGI [7]: 1.37 µM
GI50 [8]: 0.873 µM
TGI [8]: 6.05 µM
GI50 [9]: 0.265 µM
TGI [9]: 4.81 µM
GI50 [10]: 1.87 µM
TGI [10]: 9.25 µM

N#Cc1ccccc1C#C/C=C\C#Cc1cnccn1
GI50 [1]: 9.5 µM
TGI [1]: 46.2 µM
GI50 [2]: 16.2 µM
TGI [2]: 52.3 µM
GI50 [3]: 44.1 µM
TGI [3]: > 100 µM
GI50 [4]: 17 µM
TGI [4]: 45.4 µM
GI50 [5]: 13 µM
TGI [5]: 63.6 µM
GI50 [6]: 35.2 µM
TGI [6]: > 100 µM
GI50 [7]: > 66.3 µM
TGI [7]: > 100 µM
GI50 [8]: 27.5 µM
TGI [8]: > 93.1 µM
GI50 [9]: > 73.9 µM
TGI [9]: > 100 µM
GI50 [10]: 30.5 µM
TGI [10]: > 100 µM

C[CH2][Ge]1([CH2]C)[CH2]CC2(CCN(CCCN(C)C)C2)C[CH2]1
GI50 [1]: 1.78 µM and 1.71 µM
TGI [1]: 3.54 µM and 3.34 µM
GI50 [2]: 1.64 µM and 1.05 µM
TGI [2]: 3.26 µM and 1.68 µM
GI50 [3]: 1.7 µM and 2.33 µM
TGI [3]: 6.56 µM and 4.44 µM
GI50 [4]: 0.444 µM and 1.44 µM
TGI [4]: 1.13 µM and 2.22 µM
GI50 [5]: 1.72 µM and 1.87 µM
TGI [5]: 3.18 µM and 3.38 µM
GI50 [6]: 1.34 µM and 1.79 µM
TGI [6]: 2.71 µM and 3.27 µM
GI50 [7]: 1.65 µM
TGI [7]: 3.25 µM
GI50 [8]: 1.57 µM
TGI [8]: 3.3 µM
GI50 [9]: 0.175 µM and 1.48 µM
TGI [9]: 1.84 µM and 3.24 µM
GI50 [10]: 1.73 µM and 5.49 µM
TGI [10]: 3.69 µM and 9.77 µM

COc1cc(C2C3=C(COC3=O)N(CCO)c3cc4c(cc32)CCC4)cc(OC)c1OC (stereo not given)
GI50 [1]: 0.091 µM
TGI [1]: 0.663 µM
GI50 [2]: 0.0722 µM
TGI [2]: 1.76 µM
GI50 [3]: 1.12 µM
TGI [3]: > 32.5 µM
GI50 [4]: 0.0956 µM
TGI [4]: 0.451 µM
GI50 [5]: 1.56 µM
TGI [5]: > 32.5 µM
GI50 [6]: 1.24 µM
TGI [6]: > 32.5 µM
GI50 [7]: > 32.5 µM
TGI [7]: > 32.5 µM
GI50 [8]: 0.104 µM
TGI [8]: > 32.5 µM
GI50 [9]: 0.123 µM
TGI [9]: > 32.5 µM
GI50 [10]: 0.125 µM
TGI [10]: > 32.5 µM

COc1ccc(/C=C2\CC(C)CC3C2=NN(C(C)=O)C3c2ccc(OC)c(OC)c2)cc1OC (stereo not given)
GI50 [1]: 20.2 µM
TGI [1]: 37.8 µM
GI50 [2]: 15.9 µM
TGI [2]: 31 µM
GI50 [3]: 19.2 µM
TGI [3]: 70.1 µM
GI50 [4]: 12.7 µM
TGI [4]: 27.4 µM
GI50 [5]: 65 µM
TGI [5]: > 100 µM
GI50 [6]: 21.8 µM
TGI [6]: 46.9 µM
GI50 [7]: 2.68 µM
TGI [7]: 9.42 µM
GI50 [8]: 26.2 µM
TGI [8]: 61.3 µM
GI50 [9]: 24.8 µM
TGI [9]: 54.3 µM
GI50 [10]: 14.3 µM
TGI [10]: 28 µM

CC(C)(O)C1CC(=O)C(C)(C2C(O)CC3(C)C4CC=C5C(CCC(O)C5(C)C)C4(C)C(=O)CC23C)O1 (stereo not given)
TGI [1]: > 100 µM
TGI [2]: > 100 µM
TGI [3]: > 100 µM
TGI [4]: > 100 µM
TGI [5]: > 100 µM
TGI [6]: > 100 µM
TGI [7]: > 100 µM
TGI [8]: > 100 µM
TGI [9]: > 100 µM
TGI [10]: > 100 µM

CCCCc1ccc(C(N)=O)nc1
GI50 [1]: > 100 µM
TGI [1]: > 100 µM
GI50 [2]: 48.1 µM
TGI [2]: > 100 µM
GI50 [3]: 48.9 µM
TGI [3]: > 100 µM
GI50 [4]: > 100 µM
TGI [4]: > 100 µM
GI50 [5]: > 100 µM
TGI [5]: > 100 µM
GI50 [6]: > 100 µM
TGI [6]: > 100 µM
GI50 [7]: > 100 µM
TGI [7]: > 100 µM
GI50 [8]: 20 µM
TGI [8]: > 100 µM
GI50 [9]: > 100 µM
TGI [9]: > 100 µM
GI50 [10]: > 100 µM
TGI [10]: > 100 µM

CN1CCN(Cc2ccc(NC(=O)c3cncc(C#Cc4c(N)ncc5ccc(F)cc45)c3)cc2C(F)(F)F)CC1
GI50 [1]: 0.628 µM
TGI [1]: 2.65 µM
GI50 [2]: 0.299 µM
TGI [2]: 1.26 µM
GI50 [3]: 2.83 µM
TGI [3]: 10.6 µM
GI50 [4]: 0.69 µM
TGI [4]: 1.36 µM
GI50 [5]: 0.96 µM
TGI [5]: 2.29 µM
GI50 [6]: 0.621 µM
TGI [6]: 1.37 µM
GI50 [7]: 23.8 µM
TGI [7]: 50 µM
GI50 [8]: 0.512 µM
TGI [8]: 1.93 µM
GI50 [9]: 0.721 µM
TGI [9]: 2.66 µM
GI50 [10]: 1.05 µM
TGI [10]: 4 µM
